Measurements from the NIST ThermoML archive (doi:10.1016/j.jct.2005.07.009).
Numbers after ± are expanded uncertainties.

Assays:
[1] = xn = mol fraction of the nth substance listed; details: 298.15 K, 101 kPa, Liquid, Vibrating tube method
[2] = excess molar enthalpy (molar enthalpy of mixing); xn = mol fraction of the nth substance listed; details: 298.15 K, 101 kPa, Liquid

BrCCCCCCBr [1,6-dibromohexane] + CCOC=O
Details	excess molar enthalpy [kcal/mol]	mass density [kg/m3]
[1], x2 = 0.1144	–	1557.48 ± 2.6
[1], x2 = 0.2023	–	1519.96 ± 2.7
[1], x2 = 0.2923	–	1477.74 ± 2.8
[1], x2 = 0.3593	–	1443.52 ± 2.8
[1], x2 = 0.5084	–	1357.33 ± 2.9
[1], x2 = 0.571	–	1316.38 ± 2.9
[1], x2 = 0.6288	–	1275.6 ± 2.9
[1], x2 = 0.6788	–	1237.72 ± 2.8
[1], x2 = 0.7728	–	1159.02 ± 2.8
[1], x2 = 0.8233	–	1112.18 ± 2.7
[1], x2 = 0.8545	–	1081.46 ± 2.7
[1], x2 = 0.9003	–	1033.41 ± 2.6
[2], x2 = 0.1027	0.00447 ± 0.000454	–
[2], x2 = 0.2124	0.127 ± 0.00335	–
[2], x2 = 0.3116	0.161 ± 0.00406	–
[2], x2 = 0.4024	0.181 ± 0.00454	–
[2], x2 = 0.4766	0.19 ± 0.00478	–
[2], x2 = 0.547	0.19 ± 0.00478	–
[2], x2 = 0.6032	0.183 ± 0.00478	–
[2], x2 = 0.6673	0.169 ± 0.0043	–
[2], x2 = 0.7137	0.154 ± 0.00406	–
[2], x2 = 0.7608	0.136 ± 0.00359	–
[2], x2 = 0.8062	0.112 ± 0.00287	–
[2], x2 = 0.852	0.0893 ± 0.00239	–
[2], x2 = 0.8953	0.0643 ± 0.00179	–
[2], x2 = 0.9357	0.0394 ± 0.0012	–
[2], x2 = 0.9691	0.0193 ± 0.000741	–

BrCCCCBr [1,4-dibromobutane] + CCCC(=O)OCC
Details	excess molar enthalpy [kcal/mol]	mass density [kg/m3]
[1], x2 = 0.1092	–	1704.75 ± 1.3
[1], x2 = 0.1651	–	1647.4 ± 1.4
[1], x2 = 0.2725	–	1539.36 ± 1.7
[1], x2 = 0.387	–	1427.18 ± 1.9
[1], x2 = 0.4481	–	1368.56 ± 2
[1], x2 = 0.502	–	1317.46 ± 2
[1], x2 = 0.6423	–	1187.58 ± 2.2
[1], x2 = 0.6846	–	1149.12 ± 2.2
[1], x2 = 0.7489	–	1091.51 ± 2.3
[1], x2 = 0.8041	–	1042.59 ± 2.3
[1], x2 = 0.9323	–	931.23 ± 2.3
[2], x2 = 0.0504	0.00535 ± 0.000454	–
[2], x2 = 0.1096	0.00903 ± 0.000502	–
[2], x2 = 0.173	0.0111 ± 0.00055	–
[2], x2 = 0.2384	0.0112 ± 0.00055	–
[2], x2 = 0.2992	0.00939 ± 0.000526	–
[2], x2 = 0.3567	0.00607 ± 0.000478	–
[2], x2 = 0.4115	0.000311 ± 0.000382	–
[2], x2 = 0.4617	-0.00511 ± 0.000454	–
[2], x2 = 0.5078	-0.00975 ± 0.000526	–
[2], x2 = 0.5351	-0.0127 ± 0.000574	–
[2], x2 = 0.5479	-0.0133 ± 0.000598	–
[2], x2 = 0.5908	-0.0158 ± 0.000645	–
[2], x2 = 0.6504	-0.0171 ± 0.000669	–
[2], x2 = 0.7147	-0.0172 ± 0.000669	–
[2], x2 = 0.7818	-0.0157 ± 0.000645	–
[2], x2 = 0.8513	-0.0125 ± 0.000574	–
[2], x2 = 0.9352	-0.006 ± 0.000478	–

BrCCCCBr [1,4-dibromobutane] + CCOC(=O)CC
Details	excess molar enthalpy [kcal/mol]	mass density [kg/m3]
[1], x2 = 0.1225	–	1707.2 ± 1.4
[1], x2 = 0.1797	–	1654.41 ± 1.5
[1], x2 = 0.2372	–	1601.35 ± 1.6
[1], x2 = 0.299	–	1544.11 ± 1.8
[1], x2 = 0.3597	–	1488.19 ± 1.9
[1], x2 = 0.479	–	1376.63 ± 2.1
[1], x2 = 0.5912	–	1271.5 ± 2.2
[1], x2 = 0.6516	–	1214.75 ± 2.3
[1], x2 = 0.7649	–	1107.74 ± 2.4
[1], x2 = 0.8159	–	1059.5 ± 2.4
[1], x2 = 0.8793	–	999.28 ± 2.4
[1], x2 = 0.9306	–	950.5 ± 2.4
[2], x2 = 0.0536	0.00581 ± 0.000454	–
[2], x2 = 0.1124	0.00918 ± 0.000502	–
[2], x2 = 0.1759	0.0118 ± 0.00055	–
[2], x2 = 0.2389	0.0119 ± 0.00055	–
[2], x2 = 0.2996	0.0102 ± 0.000526	–
[2], x2 = 0.357	0.00696 ± 0.000478	–
[2], x2 = 0.4101	0.00217 ± 0.000406	–
[2], x2 = 0.4558	-0.00277 ± 0.00043	–
[2], x2 = 0.4841	-0.00619 ± 0.000478	–
[2], x2 = 0.4948	-0.00739 ± 0.000502	–
[2], x2 = 0.5354	-0.012 ± 0.000574	–
[2], x2 = 0.5917	-0.0157 ± 0.000645	–
[2], x2 = 0.653	-0.0173 ± 0.000693	–
[2], x2 = 0.72	-0.0174 ± 0.000693	–
[2], x2 = 0.7905	-0.015 ± 0.000645	–
[2], x2 = 0.8639	-0.011 ± 0.00055	–
[2], x2 = 0.9353	-0.00614 ± 0.000478	–

BrCCCCCBr [1,5-dibromopentane] + CCCC(=O)OCC
Details	excess molar enthalpy [kcal/mol]	mass density [kg/m3]
[1], x2 = 0.059	–	1646.96 ± 2.7
[1], x2 = 0.1242	–	1594.68 ± 2.7
[1], x2 = 0.1821	–	1548 ± 2.7
[1], x2 = 0.238	–	1502.9 ± 2.7
[1], x2 = 0.3008	–	1451.99 ± 2.7
[1], x2 = 0.4202	–	1354.48 ± 2.7
[1], x2 = 0.5373	–	1258.57 ± 2.7
[1], x2 = 0.5953	–	1210.74 ± 2.6
[1], x2 = 0.6536	–	1162.53 ± 2.6
[1], x2 = 0.7109	–	1115.08 ± 2.6
[1], x2 = 0.7685	–	1067.15 ± 2.5
[1], x2 = 0.8314	–	1014.81 ± 2.5
[1], x2 = 0.8895	–	966.17 ± 2.4
[2], x2 = 0.0632	0.00545 ± 0.000454	–
[2], x2 = 0.1296	0.00906 ± 0.000526	–
[2], x2 = 0.1974	0.0117 ± 0.00055	–
[2], x2 = 0.2617	0.012 ± 0.000574	–
[2], x2 = 0.3247	0.0105 ± 0.00055	–
[2], x2 = 0.3843	0.00777 ± 0.000502	–
[2], x2 = 0.4396	0.00466 ± 0.000454	–
[2], x2 = 0.4909	0.000693 ± 0.000382	–
[2], x2 = 0.5367	-0.00239 ± 0.00043	–
[2], x2 = 0.5745	-0.00511 ± 0.000454	–
[2], x2 = 0.6072	-0.00657 ± 0.000478	–
[2], x2 = 0.6211	-0.00755 ± 0.000502	–
[2], x2 = 0.6798	-0.00937 ± 0.000526	–
[2], x2 = 0.7429	-0.0104 ± 0.00055	–
[2], x2 = 0.8114	-0.00944 ± 0.000526	–
[2], x2 = 0.878	-0.00696 ± 0.000502	–
[2], x2 = 0.9431	-0.00356 ± 0.00043	–

BrCCCBr [1,3-dibromopropane] + CCOC=O
Details	excess molar enthalpy [kcal/mol]	mass density [kg/m3]
[1], x2 = 0.0717	–	1908.92 ± 1.4
[1], x2 = 0.1454	–	1844.11 ± 1.6
[1], x2 = 0.2149	–	1781.28 ± 1.8
[1], x2 = 0.2791	–	1721.26 ± 1.9
[1], x2 = 0.3468	–	1656.48 ± 2.1
[1], x2 = 0.4099	–	1594.33 ± 2.2
[1], x2 = 0.4685	–	1534.98 ± 2.3
[1], x2 = 0.5893	–	1407.8 ± 2.5
[1], x2 = 0.6459	–	1345.63 ± 2.5
[1], x2 = 0.6988	–	1285.95 ± 2.6
[1], x2 = 0.7521	–	1224.47 ± 2.6
[1], x2 = 0.8028	–	1164.26 ± 2.6
[1], x2 = 0.8548	–	1101.12 ± 2.5
[1], x2 = 0.9056	–	1037.67 ± 2.5
[2], x2 = 0.0727	0.0421 ± 0.00127	–
[2], x2 = 0.1458	0.0721 ± 0.00198	–
[2], x2 = 0.2104	0.0959 ± 0.00263	–
[2], x2 = 0.2886	0.113 ± 0.00311	–
[2], x2 = 0.3588	0.123 ± 0.00311	–
[2], x2 = 0.4253	0.126 ± 0.00335	–
[2], x2 = 0.4828	0.125 ± 0.00335	–
[2], x2 = 0.5358	0.122 ± 0.00311	–
[2], x2 = 0.5812	0.116 ± 0.00311	–
[2], x2 = 0.6324	0.109 ± 0.00287	–
[2], x2 = 0.6925	0.0965 ± 0.00263	–
[2], x2 = 0.7529	0.0811 ± 0.0022	–
[2], x2 = 0.8177	0.062 ± 0.00174	–
[2], x2 = 0.882	0.0414 ± 0.00124	–
[2], x2 = 0.9449	0.021 ± 0.000765	–
